# Assay results published in patent publication US10570116B2, “1,4-dicarbonyl-piperidyl derivatives” (Merck Patent GmbH, priority 2015, dated 2020).
# What was measured:
# Tankyrases = test: Measurement of cellular inhibition of Tankyrase (Axin2 level, Luminex based assay, DLD1 cells); type: cell-based; settings: increase of Axin2 level, 24 hours, read-out: EC50 [M] TNKS cellular assay
# TNKS1 = TNKS1 (Homo sapiens (Human), UniProt O95271); test: biochemical; type: biochemical; settings: GST-tagged Tnks-1 (1023-1327 aa); read-out: IC50 [M] TNKS1 ELISA
# TNKS2 = TNKS2 (Homo sapiens (Human), UniProt Q9H2K2); test: biochemical; type: biochemical; settings: GST-tagged Tnks-2 (873-1166 aa); read-out: IC50 [M] TNKS2 ELISA
# PARP-1 = PARP-1 (Homo sapiens (Human), UniProt P09874); test: Biochemical activity testing of PARP-1: autoparsylation assay (HTRF); settings: His-tagged Parp-1, autoparsylation HTRF
# Chain of PARP-1 (P09874 whole entry): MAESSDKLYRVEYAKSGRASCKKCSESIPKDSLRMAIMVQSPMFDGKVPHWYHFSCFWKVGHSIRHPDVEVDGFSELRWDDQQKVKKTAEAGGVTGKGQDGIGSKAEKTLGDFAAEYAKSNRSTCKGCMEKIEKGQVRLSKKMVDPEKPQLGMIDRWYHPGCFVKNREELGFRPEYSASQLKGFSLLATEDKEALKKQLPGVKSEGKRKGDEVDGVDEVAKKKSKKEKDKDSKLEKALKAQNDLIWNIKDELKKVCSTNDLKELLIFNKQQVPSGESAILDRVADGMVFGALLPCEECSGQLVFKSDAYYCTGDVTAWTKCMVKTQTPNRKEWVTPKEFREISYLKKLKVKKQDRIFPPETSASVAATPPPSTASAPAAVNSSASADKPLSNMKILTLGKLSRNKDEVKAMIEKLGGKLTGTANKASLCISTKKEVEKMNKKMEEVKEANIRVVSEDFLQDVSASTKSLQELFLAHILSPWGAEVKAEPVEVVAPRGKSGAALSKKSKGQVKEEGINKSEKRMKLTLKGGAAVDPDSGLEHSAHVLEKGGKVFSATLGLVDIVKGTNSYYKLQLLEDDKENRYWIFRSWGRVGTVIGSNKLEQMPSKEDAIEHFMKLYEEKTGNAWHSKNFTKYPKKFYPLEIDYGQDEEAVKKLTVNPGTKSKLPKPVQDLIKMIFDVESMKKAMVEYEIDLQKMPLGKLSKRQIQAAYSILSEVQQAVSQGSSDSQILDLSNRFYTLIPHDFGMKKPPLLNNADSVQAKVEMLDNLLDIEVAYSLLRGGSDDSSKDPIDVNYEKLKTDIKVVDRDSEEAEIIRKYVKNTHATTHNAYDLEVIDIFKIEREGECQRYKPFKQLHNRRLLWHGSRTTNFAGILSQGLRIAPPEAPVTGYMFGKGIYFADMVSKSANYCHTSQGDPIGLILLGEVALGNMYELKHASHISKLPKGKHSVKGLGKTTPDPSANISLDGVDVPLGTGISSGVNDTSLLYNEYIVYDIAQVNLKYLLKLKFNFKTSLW
SMILES,EC50 (Tankyrases) [M],IC50 (TNKS1) [M],IC50 (TNKS2) [M],IC50 (PARP-1) [nM]
"COc1ccc(C(=O)C2CCN(C(=O)CC(C)(C)Cc3nc4c(ccn4C)c(=O)[nH]3)CC2)cn1 [Compound C16, 2-{4-[4-(6-Methoxy-pyridine-3-carbonyl)-piperidin-1-yl]-2,2-dimethyl-4-oxo-butyl}-7-methyl-3,7-dihydro-pyrrolo[2,3-d]pyrimidin-4-one]",4.1e-09,6.1e-10,4.1e-10,
"Cn1cc(C(=O)C2CCN(C(=O)CC(C)(C)Cc3nc4c(ccn4C)c(=O)[nH]3)CC2)cn1 [Compound C17, 2-{2,2-Dimethyl-4-[4-(1-methyl-1H-pyrazole-4-carbonyl)-piperidin-1-yl]-4-oxo-butyl}-7-methyl-3,7-dihydro-pyrrolo[2,3-d]pyrimidin-4-one]",6.9e-09,4.7e-10,3.3e-10,> 30000
"CCn1cc(C(=O)C2CCN(C(=O)CC(C)(C)Cc3nc4c(ccn4C)c(=O)[nH]3)CC2)cn1 [Compound C18, 2-{4-[4-(1-Ethyl-1H-pyrazole-4-carbonyl)-piperidin-1-yl]-2,2-dimethyl-4-oxo-butyl}-7-methyl-3,7-dihydro-pyrrolo[2,3-d]pyrimidin-4-one]",2.8e-09,5.8e-10,3.6e-10,> 30000
"CC(C)n1cc(C(=O)C2CCN(C(=O)CC(C)(C)Cc3nc4c(ccn4C)c(=O)[nH]3)CC2)cn1 [Compound C19, 2-{4-[4-(1-Isopropyl-1H-pyrazole-4-carbonyl)-piperidin-1-yl]-2,2-dimethyl-4-oxo-butyl}-7-methyl-3,7-dihydro-pyrrolo[2,3-d]pyrimidin-4-one]",9.3e-09,1.3e-09,5.8e-10,
"COc1ccc(C(=O)C2CCN(C(=O)COCc3nc4ccccc4c(=O)[nH]3)CC2)cc1 [Compound C23, 2-{2-[4-(4-Methoxy-benzoyl)-piperidin-1-yl]-2-oxo-ethoxymethyl}-3H-quinazolin-4-one]",2.6e-08,6.3e-09,2.1e-09,
"Cn1cc(C(=O)C2CCN(C(=O)COCc3nc4ccccc4c(=O)[nH]3)CC2)cn1 [Compound C24, 2-{2-[4-(1-Methyl-1H-pyrazole-4-carbonyl)-piperidin-1-yl]-2-oxo-ethoxymethyl}-3H-quinazolin-4-one]",1e-07,2.7e-08,1.2e-08,
"COc1ccc(C(=O)C2CCN(C(=O)COCc3nc4ccccc4c(=O)[nH]3)CC2)cn1 [Compound C25, 2-{2-[4-(6-Methoxy-pyridine-3-carbonyl)-piperidin-1-yl]-2-oxo-ethoxymethyl}-3H-quinazolin-4-one]",6.4e-08,3.6e-08,1.2e-08,
"COc1ccc(C(=O)C2CCN(C(=O)COCc3nc4c(F)cc(F)cc4c(=O)[nH]3)CC2)cc1 [Compound C26, 6,8-Difluoro-2-{2-[4-(4-methoxy-benzoyl)-piperidin-1-yl]-2-oxo-ethoxymethyl}-3H-quinazolin-4-one]",2.3e-08,7.7e-09,3e-09,
"COc1ccc(C(=O)C2CCN(C(=O)COCc3nc4c(F)cc(F)cc4c(=O)[nH]3)CC2)cn1 [Compound C28, 6,8-Difluoro-2-{2-[4-(6-methoxy-pyridine-3-carbonyl)-piperidin-1-yl]-2-oxo-ethoxymethyl}-3H-quinazolin-4-one]",1e-07,3.4e-08,1.2e-08,
"CN(CCc1nc2ccccc2c(=O)[nH]1)C(=O)N1CCC(C(=O)c2cnn(C)c2)CC1 [Compound C31, 4-(1-Methyl-1H-pyrazole-4-carbonyl)-piperidine-1-carboxylic Acid methyl-[2-(4-oxo-3,4-dihydro-quinazolin-2-yl)-ethyl]-amide]",2.3e-08,3e-09,2.2e-09,
"COC(=O)c1ccc(C(=O)C2CCN(C(=O)CC(C)(C)Cc3nc4ccccc4c(=O)[nH]3)CC2)cc1 [Compound C32, 4-{1-[3,3-Dimethyl-4-(4-oxo-3,4-dihydro-quinazolin-2-yl)-butyryl]-piperidine-4-carbonyl}-benzoic Acid Methyl Ester]",1.1e-07,6.8e-10,5.6e-10,
"CC(C)(CC(=O)N1CCC(C(=O)c2ccc(C(=O)O)cc2)CC1)Cc1nc2ccccc2c(=O)[nH]1 [Compound C33, 4-{1-[3,3-Dimethyl-4-(4-oxo-3,4-dihydro-quinazolin-2-yl)-butyryl]-piperidine-4-carbonyl}-benzoic Acid]",1.5e-07,5.1e-10,4.5e-10,
"COC(=O)c1cccc(C(=O)C2CCN(C(=O)CC(C)(C)Cc3nc4ccccc4c(=O)[nH]3)CC2)c1 [Compound C34, 3-{1-[3,3-Dimethyl-4-(4-oxo-3,4-dihydro-quinazolin-2-yl)-butyryl]-piperidine-4-carbonyl}-benzoic Acid Methyl Ester]",9.9e-09,4.8e-10,5e-10,
"COC(=O)c1cccc(C(=O)C2CCN(C(=O)CC(C)(C)Cc3nc4c(C)cccc4c(=O)[nH]3)CC2)c1 [Compound C36, 3-{1-[3,3-Dimethyl-4-(8-methyl-4-oxo-3,4-dihydro-quinazolin-2-yl)-butyryl]-piperidine-4-carbonyl}-benzoic acid methyl ester]",3.4e-09,7.9e-10,2.1e-09,
"COC(=O)c1ccc(C(=O)C2CCN(C(=O)CC(C)(C)Cc3nc4ccccc4c(=O)[nH]3)CC2)cc1C [Compound C38, 4-{1-[3,3-Dimethyl-4-(4-oxo-3,4-dihydro-quinazolin-2-yl)-butyryl]-piperidine-4-carbonyl}-2-methyl-benzoic Acid Methyl Ester]",9.9e-10,5.8e-10,3.2e-10,
"Cc1cc(C(=O)C2CCN(C(=O)CC(C)(C)Cc3nc4ccccc4c(=O)[nH]3)CC2)ccc1C(=O)O [Compound C39, 4-{1-[3,3-Dimethyl-4-(4-oxo-3,4-dihydro-quinazolin-2-yl)-butyryl]-piperidine-4-carbonyl}-2-methyl-benzoic Acid]",1.3e-07,4.3e-10,6.1e-10,
"COC(=O)c1ccc(C(=O)C2CCN(C(=O)CC(C)(C)Cc3nc4c(C)cccc4c(=O)[nH]3)CC2)cc1C [Compound C40, 4-{1-[3,3-Dimethyl-4-(8-methyl-4-oxo-3,4-dihydro-quinazolin-2-yl)-butyryl]-piperidine-4-carbonyl}-2-methyl-benzoic Acid Methyl Ester]",2.9e-09,1.5e-09,4.7e-09,
"Cc1cc(C(=O)C2CCN(C(=O)CC(C)(C)Cc3nc4c(C)cccc4c(=O)[nH]3)CC2)ccc1C(=O)O [Compound C41, 4-{1-[3,3-Dimethyl-4-(8-methyl-4-oxo-3,4-dihydro-quinazolin-2-yl)-butyryl]-piperidine-4-carbonyl}-2-methyl-benzoic Acid]",1.1e-08,5.9e-10,8.8e-10,
"Cc1cc(F)cc2c(=O)[nH]c(C[C@@H](C)CC(=O)N3CCC(C(=O)c4cccc(C(=O)O)c4)CC3)nc12 [Compound C46, 3-{1-[(R)-4-(6-Fluoro-8-methyl-4-oxo-3,4-dihydro-quinazolin-2-yl)-3-methyl-butyryl]-piperidine-4-carbonyl}-benzoic Acid]",1e-05,8.2e-09,2.8e-09,
"Cc1cc(F)cc2c(=O)[nH]c(C[C@H](C)CC(=O)N3CCC(C(=O)c4cccc(C(=O)O)c4)CC3)nc12 [Compound C47, 3-{1-[(S)-4-(6-Fluoro-8-methyl-4-oxo-3,4-dihydro-quinazolin-2-yl)-3-methyl-butyryl]-piperidine-4-carbonyl}-benzoic Acid]",3e-09,3.5e-10,2.2e-10,
"CN(C)Cc1ccc(C(=O)C2CCN(C(=O)CC(C)(C)Cc3nc4ccccc4c(=O)[nH]3)CC2)cc1 [Compound C48, 2-{4-[4-(4-Dimethylaminomethyl-benzoyl)-piperidin-1-yl]-2,2-dimethyl-4-oxo-butyl}-3H-quinazolin-4-one]",1.3e-07,1.4e-08,5.3e-09,
"Cn1cc(C(=O)C2CCN(C(=O)CC(C)(C)Cc3cc4ccccc4c(=O)[nH]3)CC2)cn1 [Compound C49, 3-{2,2-Dimethyl-4-[4-(1-methyl-1H-pyrazole-4-carbonyl)-piperidin-1-yl]-4-oxo-butyl}-2H-isoquinolin-1-one]",1.3e-09,3e-10,2.1e-10,
"C[C@H](CC(=O)N1CCC(C(=O)c2cnn(C)c2)CC1)Cc1cc2ccccc2c(=O)[nH]1 [Compound C50, 3-{(S)-2-Methyl-4-[4-(1-methyl-1H-pyrazole-4-carbonyl)-piperidin-1-yl]-4-oxo-butyl}-2H-isoquinolin-1-one]",6.8e-10,4.4e-10,2.4e-10,
"C[C@@H](CC(=O)N1CCC(C(=O)c2cnn(C)c2)CC1)Cc1cc2ccccc2c(=O)[nH]1 [Compound C51, 3-{(R)-2-Methyl-4-[4-(1-methyl-1H-pyrazole-4-carbonyl)-piperidin-1-yl]-4-oxo-butyl}-2H-isoquinolin-1-one]",1.2e-08,1e-09,7.2e-10,
"CC(C)(CC(=O)N1CCC(C(=O)c2ccc(C(=O)O)cc2)CC1)Cc1cc2ccccc2c(=O)[nH]1 [Compound C52, 4-{1-[3,3-Dimethyl-4-(1-oxo-1,2-dihydro-isoquinolin-3-yl)-butyryl]-piperidine-4-carbonyl}-benzoic Acid]",8e-08,3.3e-10,2.5e-10,
"CC(C)(CC(=O)N1CCC(C(=O)c2cccc(C(=O)O)c2)CC1)Cc1cc2ccccc2c(=O)[nH]1 [Compound C53, 3-{1-[3,3-Dimethyl-4-(1-oxo-1,2-dihydro-isoquinolin-3-yl)-butyryl]-piperidine-4-carbonyl}-benzoic Acid]",8.7e-07,1.1e-09,6.9e-10,
